Entries after “also recorded” stand apart in the source; their conditions may differ.
Key:
aging mice [1] = assay: Grip strength of aging mice; type: in vivo; settings: for grip strength (muscle strength of forelimbs and hindlimbs): 24 to 25-month-old mice, once a week for 16 weeks, vs Control group
Procedure: In addition, the muscle strengths of the forelimbs and hindlimbs of 24 to 25-month-old mice were evaluated for the three groups using a grip strength measuring machine, and the evaluation was conducted once a week for 16 weeks.

promoter of MSTN = assay: pMSTN_luc luciferase assay (MSTN promoter activity); type: cell-based; settings: for MSTN promoter activity (luciferase) after Doxorubicin: pretreated 3 hours (1-1: 1, 3, 10 μM; 1-2: 1, 3, 10, 30 μM), vs Doxorubicin alone
Procedure: After 12 hours of transfection with 1 μg of a pMSTN_luc vector (myostatin; new plasmid vector generated by inserting a promoter region of a MSTN gene into a plasmid vector (pGL4.15 vector) capable of luciferase experiment), Compound 1-1 (MFC-1) was pretreated (1, 3, and 10 μM) for 3 hours, respectively. Thereafter, luciferase activity was measured by harvesting after treatment with 0.5 μg/ml of an anticancer agent Doxorubicin for 6 hours. The results were illustrated in FIG. 1B.
(Meanwhile, the luciferase assay used in FIG. 1B was an assay of transfecting a luciferase vector into a cell, treating a drug, and then treating luciferin to measure the amount of light emitted by the activation of the promoter of the gene by the drug. This means that it is possible to determine whether the promoter was activated and that the gene may be regulated at the transcriptional level by the drug touching the promoter region.)
After 12 hours of transfection with 1 μg of the pMSTN_luc vector, Compound 1-2 (MFC-2) was pretreated (1, 3, 10, and 30 μM) for 3 hours, respectively. Thereafter, the luciferase activity was measured by harvesting after treatment with Doxorubicin 0.5 μg/ml for 6 hours. The results were illustrated in FIG. 1C.
Cedrol (Reference) and Compound 1-2 (MFC-2) were each treated (3 μM), respectively, and harvested 12 hours later to measure luciferase activity (FIG. 3J).

aging mice [2] = assay: Muscle size (GC, TA, EDL) of aging mice fed compound; type: in vivo; settings: 21-month-old aging mice, in feed for 3 months; vs Control group
Procedure: 21-month-old aging mice were fed with regular feed (Control), feed containing Cedrol (Reference), and feed containing Compound 1-2 (MFC-2) for 3 months for each group, and thereafter, an animal experiment was conducted to compare the sizes of the Gastrocnemius muscle (GC), Tibialis anterior (TA), and Extensor digitorum longus (EDL) muscles separated from the hind limbs of aging mice.

[3] = Animal blood analysis of aging mice (CK, LDH, AST, TG); type: in vivo
Procedure: For the Control group, Reference group, and MFC-2 group, an animal blood analysis experiment was conducted on aging mice. As a result, it was confirmed that the serum CK level of creatine kinase (CK), which was an enzyme contained in skeletal muscle, myocardium, smooth muscle, etc. to be released into the blood when the muscle was damaged, decreased in the MFC-2 group compared to other groups (FIG. 5A).

Myostatin = assay: qRT-PCR of EDL muscle tissue of aging mice: myostatin; type: in vivo; settings: vs Control group, listed as MFC-2
Description: (§1) MuRF1 (muscle RING-finger protein 1) was a muscle-specific E3 ubiquitin ligase and a type of atrogene causing sarcopenia, and it was confirmed that the expression of Myostatin and MuRF1 was reduced in the EDL muscle tissue of the group fed with Compound MFC-2.

NF-κB promoter = assay: pNF-κB luciferase assay (NF-κB promoter activity); type: cell-based
Procedure: NF-κB was a transcription factor binding to a promoter region of a myostatin gene, a muscle mass regulation target protein, and to determine whether NF-κB was involved in the regulation of myostatin expression of Compound MFC-2, after 12 hours of transfection with 1 μg of the pNF-κB vector, Compound 1-2 (MFC-2) was treated (3 μM) for 12 hours. Thereafter, the luciferase activity was measured by harvesting (FIG. 3H). For reference, pGL3 and pGL4.15 shown in FIG. 3 were a type of luciferase plasmid vector, and the vector itself without the gene inserted was used as Control (control group). The vector in which the promoter region of the NF-κB gene was inserted into the luciferase vector was expressed as pNF-κB.
After 12 hours of transfection with 1 μg of the pNF-κB vector, Compound 1-2 (MFC-2) was pretreated (3 μM) for 3 hours. Thereafter, 0.5 μg/ml of Doxorubicin was treated for 6 hours, harvested, and luciferase activity was measured (FIG. 3I).

MuRF1 = assay: qRT-PCR of EDL muscle tissue of aging mice: MuRF1; type: in vivo
Description: as §1

[4] = then Doxorubicin 0.5 μg/ml 6 hours
[5] = aging mice blood, compared to other groups
[6] = Doxorubicin 0.5 μg/ml for 6 hours, alone

## C[C@@H]1CC[C@H]2C(C)(C)[C@H]3C[C@@]12CC[C@@]3(C)O [Cedrol, reference compound]
Aging mice [1]
  grip strength (muscle strength of forelimbs and hindlimbs): gradually increased compared to the Control group

## COc1cc(C(=O)O[C@]2(C)CC[C@@]34C[C@@H]2C(C)(C)[C@@H]3CC[C@H]4C)ccc1O [Compound 1-1, (3R,3aS,6R,7R,8aS)-3,6,8,8-tetramethyloctahydro-1H-3a,7-metanoazulen-6-yl-4-hydroxy-3-methoxybenzoate]
Promoter of MSTN; [4]
  MSTN promoter activity (luciferase) after Doxorubicin: lower expression level than a group treated with Doxorubicin alone

## COc1cc(C(=O)O[C@]2(C)CC[C@@]34C[C@@H]2C(C)(C)[C@@H]3CC[C@H]4C)ccc1OC(C)=O [Compound 1-2, (3R,3aS,6R,7R,8aS)-3,6,8,8-tetramethyloctahydro-1H-3a,7-methanoazulen-6-yl-4-acetoxy-3-methoxybenzoate]
Aging mice [2]
  muscle size (GC, TA, EDL): increase in muscle size
Aging mice [1]; listed as MFC-2
  grip strength (muscle strength of forelimbs and hindlimbs): gradually increased compared to the Control group
Aging mice [1]; aging mice, from week 15
  grip strength compared to Reference group (Cedrol): increased compared to the Reference group from week 15 later
[3]; aging mice blood, compared to Control group
  LDH level: decrease in LDH level
[3]; [5]
  AST level: decrease in the levels thereof
  TG level: decrease in the levels thereof
[3]; aging mice, compared to other groups
  serum CK level: decreased
Myostatin
  myostatin mRNA expression in EDL muscle tissue: significantly decreased compared to the Control group; also recorded: reduced
Promoter of MSTN; 3 μM, harvested 12 hours later, compared with Cedrol
  pMSTN-luciferase activity: reduced pMSTN-luciferase activity more effectively than existing Cedrol (Reference)
Promoter of MSTN; [4]
  MSTN promoter activity (luciferase) after Doxorubicin: lower expression level than the group treated with Doxorubicin alone
Promoter of MSTN; pretreatment, then Doxorubicin 0.5 μg/ml 6 hours
  inhibitory effect on MSTN promoter activity compared with Compound 1-1: greater inhibitory effect than Compound 1-1 (MFC-1)
NF-κB promoter; 3 μM for 12 hours, no Doxorubicin
  NF-κB promoter activity (luciferase): reduces NF-κB promoter activity
NF-κB promoter; pretreated 3 μM 3 hours, then Doxorubicin 0.5 μg/ml 6 hours, vs Doxorubicin alone
  NF-κB promoter activity (luciferase) after Doxorubicin: lower expression level than the group treated with Doxorubicin alone
MuRF1
  MuRF1 mRNA expression in EDL muscle tissue: reduced

## COc1cccc2c1C(=O)c1c(O)c3c(c(O)c1C2=O)C[C@@](O)(C(=O)CO)C[C@@H]3O[C@H]1C[C@H](N)[C@H](O)[C@H](C)O1 [Doxorubicin, reference compound]
Promoter of MSTN; [6]
  MSTN promoter activity (luciferase): rapidly increased
NF-κB promoter; [6]
  NF-κB promoter activity (luciferase): increased
